Test [1] has as its system A549. The test can be described thus: Cytotoxicity against human A549 cells after 24 hrs by YO-PRO-1 assay. To be noted: A549, 24 h. Type of test: functional, cell-based.
Test [2] deals with A549. Nature of the test: Induction of early stage apoptosis in human A549 cells assessed as mitotracker dye uptake. Format: functional, cell-based.
Test [3] relates to A549. The test can be described thus: Cytotoxicity against human A549 cells after 24 hrs by propidium iodide assay. Type of test: functional, cell-based. To be noted: A549, 24 h.
Test [4] relates to A549. The test can be described thus: Cytotoxicity against human A549 cells at 100 uM. Type of test: functional.
Test [5] deals with A549. Nature of the test: Induction of early stage apoptosis in human A549 cells assessed as mitotracker dye uptake at 30 uM after 24 hrs. Format: functional, cell-based.

The source made the active and inactive calls. No cut-off for these calls is given here.

As for `COc1cc(C[C@@H](C)[C@H](C)Cc2ccc(O)c(OC)c2)ccc1O` [(-)-DIHYDROGUAIARETICACID], the results for the IC50 with A549 [1], in the test on A549 [2] and in the test on A549 [3] were 7.49 µM, 31.2 µM and 7.49 µM, respectively. Consider `COc1ccc([C@@H]2[C@@H](C)[C@@H](C)[C@@H]2c2ccc(OC)c(OC)c2)cc1OC` [CINBALANSAN], for which the inhibition – broadly, how much of the control response was suppressed – at 100 µM in the test with A549 [4] came to 34%. Moreover, the outcome in the test on A549 [5] was Active. For `COc1cc2c(c(OC)c1OC)-c1ccc(OC)c(=O)cc1[C@@H](NC(C)=O)CC2` [COLCHICINE], the IC50 with A549 [1] and in the test on A549 [3] was 0.0108 µg/mL each time. Turning to `COc1cc([C@@H]2[C@@H](C)[C@H](C)[C@H]2c2ccc(O)c(OC)c2)ccc1O` [ENDIANDRIN A], in the test on A549 [4], the inhibition at 100 µM was determined as 76%. With `COc1cc([C@@H]2[C@@H](C)[C@@H](C)[C@@H]2c2ccc(O)c(OC)c2)ccc1O` [ENDIANDRIN B], the inhibition at 100 µM in the test on A549 [4] was 75%.

As to `CC(=O)O[C@H]1C(=O)[C@@]2(C)[C@H]([C@H](OC(=O)c3ccccc3)[C@]3(O)C[C@H](OC(=O)[C@H](O)[C@@H](NC(=O)c4ccccc4)c4ccccc4)C(C)=C1C3(C)C)[C@]1(OC(C)=O)CO[C@@H]1C[C@@H]2O` [PACLITAXEL], the 50% inhibitory concentration (IC50) (as a rule, the midpoint of a concentration-inhibition curve) in the test on A549 [1] was found to be 0.0196 µg/mL. On to `COC[C@H]1OC(=O)c2coc3c2[C@@]1(C)C1=C(C3=O)[C@@H]2CCC(=O)[C@@]2(C)C[C@H]1OC(C)=O` [WORTMANNIN], for which the IC50 in the test on A549 [1] and in the test with A549 [3] was 0.00428 µg/mL in each case.

(Values after ChEMBL document CHEMBL1143379, “Isolation, structure elucidation and cytotoxic evaluation of endiandrin B from the Australian rainforest plant Endiandra anthropophagorum” (Bioorg Med Chem, 2009).)
